Reference: patent US8048825B2, “Haloalkylsulfonanilide derivatives or salt thereof, herbicide comprising the derivatives as active ingredient, and use of the herbicide” (Nihon Nohyaku Co., Ltd., priority 2006, dated 2011)

Legend:
Format in all cases: in vivo
Lindernia procumbens [1] = assay: Herbicidal efficacy on paddy field weeds of pre-emergence stage (Pre), Test Example 1; settings: 1000 g/ha as active ingredient, examined after 21 days
Experimental: (§1) 75 cm^2 plastic pots were filled with the soil (clay loam). Seeds of Scirpus juncoides, a paddy weed, were planted, and they were covered with 75 cm^3 of soil mixed with seeds of Lindernia procumbens and then filled with water depth of 5 cm. Next day, predetermined effective dosage (1000 g/ha as an active ingredient) of formulations comprising a compound of the present invention as an active ingredient which were prepared following Formulation Examples 1 to 4 was diluted with water and applied dropwise to the surface of the water. Then, they were brought up in a greenhouse and the herbicidal effect was examined after 21 days from the treatment by comparing with the result of an untreated group according to the following criteria. In the table, “-” means that the test was not performed.
(§2) Criteria for herbicidal efficacy (growth inhibiting degree) and phytotoxicity. • 5 . . . 100% herbicidal effect, phytotoxicity. • 4 . . . 90%-99% herbicidal effect, phytotoxicity. • 3 . . . 70%-89% herbicidal effect, phytotoxicity. • 2 . . . 40%-69% herbicidal effect, phytotoxicity. • 1 . . . 1%-39% herbicidal effect, phytotoxicity. • 0 . . . 0% herbicidal effect, phytotoxicity.

Scirpus juncoides [2] = assay: as above; settings: 1000 g/ha as active ingredient, examined after 21 days
Experimental: as §1, §2

Echinochloa crus-galli = assay: Herbicidal effect on paddy field weeds of post-emergence stage (Post), Test Example 2; settings: one-leaf stage, 1000 g/ha as active ingredient, examined after 21 days
Source text: as §2
(§3) 75 cm^2 plastic pots were filled with the soil (clay loam). Seeds of Scirpus juncoides and Echinochloa crus-galli, paddy weeds, were planted, and they were covered with 75 cm^3 of soil mixed with seeds of Lindernia procumbens and then filled with water depth of 5 cm and they were brought up in a greenhouse. When the test plants were at one-leaf stage, predetermined effective dosage (1000 g/ha as an active ingredient) of formulations comprising a compound of the present invention as an active ingredient was applied to the pot water. Then, they were brought up in a greenhouse and the herbicidal efficacy was examined after 21 days from the treatment by comparing with the result of an untreated group according to the criteria of Test Example 1. In the table, “-” means that the test was not performed.

Scirpus juncoides [3] = assay: as above; settings: one-leaf stage, 1000 g/ha as active ingredient, examined after 21 days
Source text: as §2, §3

Lindernia procumbens [4] = assay: as above; settings: one-leaf stage, 1000 g/ha as active ingredient, examined after 21 days
Source text: as §2, §3

O=S(=O)(Nc1ccccc1CN1CCCCOC1=S)C(F)(F)F [2-12]
Lindernia procumbens pre (herbicidal effect) (Lindernia procumbens [1]): 4 (90%-99% herbicidal effect, phytotoxicity) | Scirpus juncoides pre (herbicidal effect) (Scirpus juncoides [2]): 4 (90%-99% herbicidal effect, phytotoxicity) | Echinochloa crus-galli post (herbicidal effect) (Echinochloa crus-galli): 4 (90%-99% herbicidal effect, phytotoxicity) | Scirpus juncoides post (herbicidal effect) (Scirpus juncoides [3]): 4 (90%-99% herbicidal effect, phytotoxicity)

CC(C)COC(=O)N(c1ccccc1CN1CCCCOC1=S)S(=O)(=O)C(F)(F)F [2-17]
Scirpus juncoides pre (herbicidal effect) (Scirpus juncoides [2]): 4 (90%-99% herbicidal effect, phytotoxicity) | Echinochloa crus-galli post (herbicidal effect) (Echinochloa crus-galli): 4 (90%-99% herbicidal effect, phytotoxicity) | Scirpus juncoides post (herbicidal effect) (Scirpus juncoides [3]): 4 (90%-99% herbicidal effect, phytotoxicity)

CC1(C(F)(F)F)CCN(Cc2ccccc2NS(=O)(=O)C(F)(F)F)C(=O)O1 (stereo not drawn) [Compound 1-80]
Lindernia procumbens pre (herbicidal effect) (Lindernia procumbens [1]): 4 (90%-99% herbicidal effect, phytotoxicity) | Scirpus juncoides pre (herbicidal effect) (Scirpus juncoides [2]): 4 (90%-99% herbicidal effect, phytotoxicity) | Echinochloa crus-galli post (herbicidal effect) (Echinochloa crus-galli): 4 (90%-99% herbicidal effect, phytotoxicity) | Scirpus juncoides post (herbicidal effect) (Scirpus juncoides [3]): 4 (90%-99% herbicidal effect, phytotoxicity)

CC(C)COC(=O)N(c1ccccc1CN1CCC(C)(C(F)(F)F)OC1=O)S(=O)(=O)C(F)(F)F (stereo not drawn) [Compound 1-85]
Lindernia procumbens pre (herbicidal effect) (Lindernia procumbens [1]): 4 (90%-99% herbicidal effect, phytotoxicity) | Scirpus juncoides pre (herbicidal effect) (Scirpus juncoides [2]): 4 (90%-99% herbicidal effect, phytotoxicity) | Echinochloa crus-galli post (herbicidal effect) (Echinochloa crus-galli): 4 (90%-99% herbicidal effect, phytotoxicity) | Scirpus juncoides post (herbicidal effect) (Scirpus juncoides [3]): 4 (90%-99% herbicidal effect, phytotoxicity)

CC(C)COC(=O)N(c1ccccc1CN1CCC(c2ccccc2)(C2CC2)OC1=O)S(=O)(=O)C(F)(F)F (stereo not drawn) [Compound 1-188]
Lindernia procumbens pre (herbicidal effect) (Lindernia procumbens [1]): 4 (90%-99% herbicidal effect, phytotoxicity) | Scirpus juncoides pre (herbicidal effect) (Scirpus juncoides [2]): 4 (90%-99% herbicidal effect, phytotoxicity) | Echinochloa crus-galli post (herbicidal effect) (Echinochloa crus-galli): 4 (90%-99% herbicidal effect, phytotoxicity) | Scirpus juncoides post (herbicidal effect) (Scirpus juncoides [3]): 4 (90%-99% herbicidal effect, phytotoxicity)

COCN(c1ccccc1CN1CCC(c2ccccc2)(C2CC2)OC1=O)S(=O)(=O)C(F)(F)F (stereo not drawn) [Compound 1-191]
Lindernia procumbens pre (herbicidal effect) (Lindernia procumbens [1]): 4 (90%-99% herbicidal effect, phytotoxicity) | Echinochloa crus-galli post (herbicidal effect) (Echinochloa crus-galli): 4 (90%-99% herbicidal effect, phytotoxicity)

CN(c1ccccc1CN1CC(C)(C)C(c2ccccc2)OC1=O)S(=O)(=O)C(F)(F)F (stereo not drawn) [Compound 1-268]
Lindernia procumbens pre (herbicidal effect) (Lindernia procumbens [1]): 5 (100% herbicidal effect, phytotoxicity) | Scirpus juncoides pre (herbicidal effect) (Scirpus juncoides [2]): 4 (90%-99% herbicidal effect, phytotoxicity) | Lindernia procumbens post (herbicidal effect) (Lindernia procumbens [4]): 5 (100% herbicidal effect, phytotoxicity) | Scirpus juncoides post (herbicidal effect) (Scirpus juncoides [3]): 4 (90%-99% herbicidal effect, phytotoxicity)

O=C1OC(c2ccccc2C(F)(F)F)CCN1Cc1ccccc1NS(=O)(=O)C(F)(F)F (stereo not drawn) [Compound 1-294]
Lindernia procumbens pre (herbicidal effect) (Lindernia procumbens [1]): 5 (100% herbicidal effect, phytotoxicity) | Scirpus juncoides pre (herbicidal effect) (Scirpus juncoides [2]): 4 (90%-99% herbicidal effect, phytotoxicity) | Lindernia procumbens post (herbicidal effect) (Lindernia procumbens [4]): 5 (100% herbicidal effect, phytotoxicity) | Scirpus juncoides post (herbicidal effect) (Scirpus juncoides [3]): 4 (90%-99% herbicidal effect, phytotoxicity)

O=C1OC(c2ccccc2Cl)CCN1Cc1ccccc1NS(=O)(=O)C(F)(F)F (stereo not drawn) [Compound 1-305]
Lindernia procumbens pre (herbicidal effect) (Lindernia procumbens [1]): 5 (100% herbicidal effect, phytotoxicity) | Scirpus juncoides pre (herbicidal effect) (Scirpus juncoides [2]): 4 (90%-99% herbicidal effect, phytotoxicity) | Lindernia procumbens post (herbicidal effect) (Lindernia procumbens [4]): 5 (100% herbicidal effect, phytotoxicity) | Scirpus juncoides post (herbicidal effect) (Scirpus juncoides [3]): 4 (90%-99% herbicidal effect, phytotoxicity)

CCOC(=O)N(c1ccccc1CN1CCC(c2ccccc2Cl)OC1=O)S(=O)(=O)C(F)(F)F (stereo not drawn) [Compound 1-307]
Lindernia procumbens pre (herbicidal effect) (Lindernia procumbens [1]): 5 (100% herbicidal effect, phytotoxicity) | Scirpus juncoides pre (herbicidal effect) (Scirpus juncoides [2]): 4 (90%-99% herbicidal effect, phytotoxicity) | Lindernia procumbens post (herbicidal effect) (Lindernia procumbens [4]): 5 (100% herbicidal effect, phytotoxicity) | Scirpus juncoides post (herbicidal effect) (Scirpus juncoides [3]): 4 (90%-99% herbicidal effect, phytotoxicity)

O=C1OC(C(F)(F)F)(C(F)(F)F)CCN1Cc1ccccc1NS(=O)(=O)C(F)(F)F [Compound 1-338]
Lindernia procumbens pre (herbicidal effect) (Lindernia procumbens [1]): 4 (90%-99% herbicidal effect, phytotoxicity) | Scirpus juncoides pre (herbicidal effect) (Scirpus juncoides [2]): 4 (90%-99% herbicidal effect, phytotoxicity) | Lindernia procumbens post (herbicidal effect) (Lindernia procumbens [4]): 5 (100% herbicidal effect, phytotoxicity) | Scirpus juncoides post (herbicidal effect) (Scirpus juncoides [3]): 4 (90%-99% herbicidal effect, phytotoxicity)

CCOC(=O)N(c1ccccc1CN1CCC(C(F)(F)F)(C(F)(F)F)OC1=O)S(=O)(=O)C(F)(F)F [Compound 1-340]
Lindernia procumbens pre (herbicidal effect) (Lindernia procumbens [1]): 5 (100% herbicidal effect, phytotoxicity) | Scirpus juncoides pre (herbicidal effect) (Scirpus juncoides [2]): 4 (90%-99% herbicidal effect, phytotoxicity) | Echinochloa crus-galli post (herbicidal effect) (Echinochloa crus-galli): 4 (90%-99% herbicidal effect, phytotoxicity) | Scirpus juncoides post (herbicidal effect) (Scirpus juncoides [3]): 4 (90%-99% herbicidal effect, phytotoxicity)

COC(=O)N(c1ccccc1CN1CCC(c2c(F)cccc2F)OC1=O)S(=O)(=O)C(F)(F)F (stereo not drawn) [Compound 1-350]
Lindernia procumbens pre (herbicidal effect) (Lindernia procumbens [1]): 5 (100% herbicidal effect, phytotoxicity) | Scirpus juncoides pre (herbicidal effect) (Scirpus juncoides [2]): 5 (100% herbicidal effect, phytotoxicity) | Lindernia procumbens post (herbicidal effect) (Lindernia procumbens [4]): 5 (100% herbicidal effect, phytotoxicity) | Scirpus juncoides post (herbicidal effect) (Scirpus juncoides [3]): 4 (90%-99% herbicidal effect, phytotoxicity)

CCOC(=O)N(c1ccccc1CN1CCC(c2c(F)cccc2F)OC1=O)S(=O)(=O)C(F)(F)F (stereo not drawn) [Compound 1-351]
Lindernia procumbens pre (herbicidal effect) (Lindernia procumbens [1]): 5 (100% herbicidal effect, phytotoxicity) | Scirpus juncoides pre (herbicidal effect) (Scirpus juncoides [2]): 4 (90%-99% herbicidal effect, phytotoxicity) | Lindernia procumbens post (herbicidal effect) (Lindernia procumbens [4]): 5 (100% herbicidal effect, phytotoxicity) | Scirpus juncoides post (herbicidal effect) (Scirpus juncoides [3]): 4 (90%-99% herbicidal effect, phytotoxicity)

Cc1cccc(C)c1C1CCN(Cc2ccccc2NS(=O)(=O)C(F)(F)F)C(=O)O1 (stereo not drawn) [Compound 1-360]
Lindernia procumbens pre (herbicidal effect) (Lindernia procumbens [1]): 5 (100% herbicidal effect, phytotoxicity) | Scirpus juncoides pre (herbicidal effect) (Scirpus juncoides [2]): 5 (100% herbicidal effect, phytotoxicity) | Lindernia procumbens post (herbicidal effect) (Lindernia procumbens [4]): 5 (100% herbicidal effect, phytotoxicity) | Scirpus juncoides post (herbicidal effect) (Scirpus juncoides [3]): 4 (90%-99% herbicidal effect, phytotoxicity)

CC(C)(C)COC(=O)N(c1ccccc1CN1CCC(C)(C2(C)CC2)OC1=O)S(=O)(=O)C(F)(F)F (stereo not drawn) [Compound 1-377]
Lindernia procumbens pre (herbicidal effect) (Lindernia procumbens [1]): 5 (100% herbicidal effect, phytotoxicity) | Scirpus juncoides pre (herbicidal effect) (Scirpus juncoides [2]): 4 (90%-99% herbicidal effect, phytotoxicity) | Lindernia procumbens post (herbicidal effect) (Lindernia procumbens [4]): 5 (100% herbicidal effect, phytotoxicity) | Scirpus juncoides post (herbicidal effect) (Scirpus juncoides [3]): 4 (90%-99% herbicidal effect, phytotoxicity)

CC1(c2ccccc2C(F)(F)F)CCN(Cc2ccccc2NS(=O)(=O)C(F)(F)F)C(=O)O1 (stereo not drawn) [Compound 1-393]
Lindernia procumbens pre (herbicidal effect) (Lindernia procumbens [1]): 5 (100% herbicidal effect, phytotoxicity) | Scirpus juncoides pre (herbicidal effect) (Scirpus juncoides [2]): 5 (100% herbicidal effect, phytotoxicity) | Lindernia procumbens post (herbicidal effect) (Lindernia procumbens [4]): 5 (100% herbicidal effect, phytotoxicity) | Scirpus juncoides post (herbicidal effect) (Scirpus juncoides [3]): 4 (90%-99% herbicidal effect, phytotoxicity)

Cc1ccccc1C1(C)CCN(Cc2ccccc2NS(=O)(=O)C(F)(F)F)C(=O)O1 (stereo not drawn) [Compound 1-404]
Lindernia procumbens pre (herbicidal effect) (Lindernia procumbens [1]): 5 (100% herbicidal effect, phytotoxicity) | Scirpus juncoides pre (herbicidal effect) (Scirpus juncoides [2]): 4 (90%-99% herbicidal effect, phytotoxicity) | Lindernia procumbens post (herbicidal effect) (Lindernia procumbens [4]): 5 (100% herbicidal effect, phytotoxicity) | Scirpus juncoides post (herbicidal effect) (Scirpus juncoides [3]): 4 (90%-99% herbicidal effect, phytotoxicity)

CCC1(C(F)(F)F)CCN(Cc2ccccc2N(C(=O)OCC(Cl)(Cl)Cl)S(=O)(=O)C(F)(F)F)C(=O)O1 (stereo not drawn) [Compound 1-416]
Lindernia procumbens pre (herbicidal effect) (Lindernia procumbens [1]): 5 (100% herbicidal effect, phytotoxicity) | Scirpus juncoides pre (herbicidal effect) (Scirpus juncoides [2]): 5 (100% herbicidal effect, phytotoxicity) | Echinochloa crus-galli post (herbicidal effect) (Echinochloa crus-galli): 5 (100% herbicidal effect, phytotoxicity) | Scirpus juncoides post (herbicidal effect) (Scirpus juncoides [3]): 4 (90%-99% herbicidal effect, phytotoxicity)

CCOC(=O)N(c1ccccc1CN1CCC(CC)(CC(C)C)OC1=O)S(=O)(=O)C(F)(F)F (stereo not drawn) [Compound 1-419]
Lindernia procumbens pre (herbicidal effect) (Lindernia procumbens [1]): 5 (100% herbicidal effect, phytotoxicity) | Scirpus juncoides pre (herbicidal effect) (Scirpus juncoides [2]): 5 (100% herbicidal effect, phytotoxicity) | Lindernia procumbens post (herbicidal effect) (Lindernia procumbens [4]): 5 (100% herbicidal effect, phytotoxicity) | Scirpus juncoides post (herbicidal effect) (Scirpus juncoides [3]): 4 (90%-99% herbicidal effect, phytotoxicity)

CCC1(CC(C)C)CCN(Cc2ccccc2N(C(=O)OCC(C)C)S(=O)(=O)C(F)(F)F)C(=O)O1 (stereo not drawn) [Compound 1-422]
Lindernia procumbens pre (herbicidal effect) (Lindernia procumbens [1]): 5 (100% herbicidal effect, phytotoxicity) | Scirpus juncoides pre (herbicidal effect) (Scirpus juncoides [2]): 5 (100% herbicidal effect, phytotoxicity) | Lindernia procumbens post (herbicidal effect) (Lindernia procumbens [4]): 5 (100% herbicidal effect, phytotoxicity) | Scirpus juncoides post (herbicidal effect) (Scirpus juncoides [3]): 4 (90%-99% herbicidal effect, phytotoxicity)
